# Measured values as given in publication PMC10766854 (Frontiers in Pharmacology, 2023).
# Tests used:
# [1] = Pharmacokinetics and bioequivalence after a single subcutaneous injection, plasma liraglutide by LC-MS/MS; format: in vivo, human; conditions: single s.c. 0.6 mg, N = 36
# Procedure: This trial was designed as a randomized, open, two-cycle, self-crossover trial. Screening was performed within 28 days prior to dosing, and eligible subjects were admitted to the Phase I Clinical Trial Ward in the afternoon of the first day prior to dosing and fasted for 10 h overnight after dinner. […] A total of 18 subjects received the test formulation in the first cycle, and the other 18 subjects received the reference formulation for administration and were crossover-administered for the second cycle of the study after a 14-day washout period. Drinking water was restricted for 1 h before and 1 h after dosing, water was drunk as needed at all other times, and a standardized nutritious meal was uniformly provided at least 4 h after dosing. The subjects were discharged from the hospital on the third day after dosing. Follow-up examinations were performed 72 h after the last dose of the second cycle.
# After collection, the tubes were inverted six times, centrifuged at 4°C, 1,460 g for 10 min, and the plasma was aliquoted and placed it the numbered cryopreservation tube. Plasma samples were stored in a refrigerator at −80°C before analysis.
# Waters ACQUITY UPLC (Waters Corporation, United States) and AB Triple Quad 6500+ Mass Spectrometer (SCIEX Technologies, United States) combined with an electrospray ionization source were used for LC-MS/MS analysis. […] The chromatographic separation was performed on a C18 column (Waters) at 60°C with a flow rate of 600 μL/min. The mobile phase A was 0.025% formic acid aqueous solution (v/v), and the mobile phase B was 0.025% formic acid acetonitrile aqueous solution (v/v). The linear range, limit of quantification, accuracy, precision, recovery, selectivity, and stability of the method were verified. […] In the concentration data listings, all missing data are indicated as “-” or NA (not applicable).
# The pharmacokinetic parameters, including Tmax, Cmax, AUC0-t, AUC0-∞, t1/2z, AUC_%Extrap, Vz/F, and CLz/F, were calculated using the non-compartmental model of WinNonlin 7.0. Descriptive statistical analysis was performed on PK parameters, and the arithmetic mean, standard deviation, coefficient of variation, maximum, minimum, and geometric mean of each parameter were calculated. If AUC_%Extrap >20%, the subject’s AUC0-∞, t1/2z, Vz/F, and CLz/F were not to be used for descriptive statistical analysis.
# Based on the blood concentration data, SAS 9.4 was used for statistical analysis. Cmax, AUC0-t, AUC0-∞, t1/2z, CLz/F, and Vz/F were logarithmically transformed and then analyzed using variance analysis (ANOVA). […] Two one-sided tests were performed for each parameter, and 90% CI of the geometric mean ratio (GMR) of the pharmacokinetic parameters (T/R) was calculated.
# [2] = Safety and tolerability assessment (adverse events) in the crossover trial; format: in vivo, human; conditions: single s.c. 0.6 mg
# Procedure: Subjects receiving the study drug were included in the safety assessment. The safety assessment included physical examination, vital signs (pre-dose and 1, 3, 12, 24, 48, and 72 h after administration of the study drug in the first and second cycles), laboratory tests, 12-lead electrocardiograms (pre-dose and 3, 24, 48, and 72 h after administration of the study drug in the first and second cycles), and blood glucose monitoring. Laboratory safety assessments were completed at the laboratory of Zhongshan Hospital, Fudan University, including routine blood, blood biochemistry, thyroid function, coagulation function, and urine routine tests. All adverse reactions were coded using MedDRA 21.0 terminology and categorized and analyzed according to SOC/PT.
# [3] = Stability of analyte solutions and prepared samples, LC-MS/MS method validation; format: physicochemical; conditions: room temperature
# Procedure: Plasma concentrations of liraglutide were analyzed using a validated, sensitive, and specific liquid chromatography–tandem mass spectrometry (LC-MS/MS) method developed by Shanghai WuXi AppTec New Drug Development Co. (Shanghai, China). Waters ACQUITY UPLC (Waters Corporation, United States) and AB Triple Quad 6500+ Mass Spectrometer (SCIEX Technologies, United States) combined with an electrospray ionization source were used for LC-MS/MS analysis. The internal standard of liraglutide was developed in-house. The chromatographic separation was performed on a C18 column (Waters) at 60°C with a flow rate of 600 μL/min. […] The linear range, limit of quantification, accuracy, precision, recovery, selectivity, and stability of the method were verified. The linear range of the analytical method for the determination of liraglutide in plasma was 1.00–250 ng/mL, and the lower limit of quantification (LLOQ) was 1.00 ng/mL. […] The analyte recoveries were determined using three gradients, high, medium, and low, with mean values of 48.0%, 47.6%, and 57.8%, respectively, corresponding to CVs of less than 8% and 57.3 for IS, corresponding to a CV of 5.1%. […] During analysis, plasma concentrations of liraglutide below the limit of quantification were listed as zero and missing values in PK samples before and after Tmax, respectively. […]
# [4] = ref US Food and Drug Administration, 2017, cited from earlier work
# Procedure: The lower dose on the steeper portion of the exposure–effect curve in healthy subjects was chosen to assess the difference between the subject drug and the reference drug ([CDER, 2014]), and therefore, 0.6 mg was selected as the dose to be administered in this comparative trial.
# [5] = ref US Food and Drug Administration, 2017, cited from earlier work; remark: listed apart in the source
# Procedure: In five double-blind clinical trials of 26 weeks or longer, the incidence of gastrointestinal adverse reactions in patients was reported to be 41% in the liraglutide treatment group and was dose-related ([US Food and Drug Administration, 2017]). This is consistent with the pharmacodynamic profile of GLP-1R agonist-related drugs. […] In five clinical trials of 26 weeks or longer ([US Food and Drug Administration, 2017]), approximately 50%–70% of Victoza-treated patients were tested for anti-liraglutide antibodies at the end of treatment. Approximately 8.6% of the liraglutide-treated group were detected with low-titer (no serum concentration dilution required) anti-liraglutide antibodies. When comparing all antibody-positive and all antibody-negative patients, antibody formation wa ...
# [6] = tested on: dipeptidyl dipeptidase-4; conditions: endogenous GLP-1, easily degraded by dipeptidyl dipeptidase-4; ref Drucker, 2003; cited from earlier work
# Excerpt: GLP-1 is an endogenous incretin hormone secreted primarily by intestinal L-cells ([Drucker, 2006]; [Baggio and Drucker, 2007]; [Müller et al., 2019]), which is involved in the regulation of glucose homeostasis through GLP-1R, a G-protein-coupled receptor, in a variety of ways, mainly including stimulation of insulin secretion in a glucose-dependent manner, inhibition of glucagon secretion, reduction of appetite, slowing down of gastric emptying ([Drucker and Nauck, 2006]; [Hare et al., 2010]), enhancement of insulin sensitivity ([Fernández-Millán et al., 2016]; [Capuani et al., 2018]; [Jiang e ...
# [7] = healthy Chinese subjects, N = 36
# [8] = single dose 0.6 mg subcutaneously
molecule,measurement,setting,value
"CCCCCCCCCCCCCCCC(=O)N[C@@H](CCC(=O)NCCCC[C@H](NC(=O)[C@H](C)NC(=O)[C@H](C)NC(=O)[C@H](CCC(N)=O)NC(=O)CNC(=O)[C@H](CCC(=O)O)NC(=O)[C@H](CC(C)C)NC(=O)[C@H](Cc1ccc(O)cc1)NC(=O)[C@H](CO)NC(=O)[C@H](CO)NC(=O)[C@@H](NC(=O)[C@H](CC(=O)O)NC(=O)[C@H](CO)NC(=O)[C@@H](NC(=O)[C@H](Cc1ccccc1)NC(=O)[C@@H](NC(=O)CNC(=O)[C@H](CCC(=O)O)NC(=O)[C@H](C)NC(=O)[C@@H](N)Cc1cnc[nH]1)[C@@H](C)O)[C@@H](C)O)C(C)C)C(=O)N[C@@H](CCC(=O)O)C(=O)N[C@@H](Cc1ccccc1)C(=O)N[C@H](C(=O)N[C@@H](C)C(=O)N[C@@H](Cc1c[nH]c2ccccc12)C(=O)N[C@@H](CC(C)C)C(=O)N[C@H](C(=O)N[C@@H](CCCNC(=N)N)C(=O)NCC(=O)N[C@@H](CCCNC(=N)N)C(=O)NCC(=O)O)C(C)C)[C@@H](C)CC)C(=O)O [Liraglutide, liraglutide]",Vd/F,"[1]; human, in vivo, sc, healthy Chinese subjects, plasma LC-MS/MS, non-compartmental, mean ± SD (%CV), read-out: Vz/F (apparent volume of distribution)",8.34 L
same,Geometric mean ratio (T/R) of Cmax,"[1]; test liraglutide injection versus Victoza, equivalence interval 80.00%–125.00%, 90% CI 99.54–108.10",103.73%
same,Geometric mean ratio (T/R) of AUC0-t,"[1]; test liraglutide injection versus Victoza, equivalence interval 80.00%–125.00%, 90% CI 99.85–106.26",103.01%
same,Geometric mean ratio (T/R) of AUC0-∞,"[1]; test liraglutide injection versus Victoza, equivalence interval 80.00%–125.00%, 90% CI 100.04–106.11",103.03%
same,Tolerability (in words),[2]; healthy Chinese subjects,well tolerated
same,"AEs leading to exit, Instance",[2]; [7],0
same,"AEs of grade 1 and above, Instance",[2]; [7],0
same,"Blurred right vision, Instance",[2]; [7],0
same,"Elevated blood glucose, Instance",[2]; [7],0
same,"Elevated free thyroxine, Instance",[2]; [7],1
same,"Elevated hypersensitivity thyroid-stimulating hormone, Instance",[2]; [7],1
same,"Hyperuricemia, Instance",[2]; [7],1
same,"Increased alanine aminotransferase, Instance",[2]; [7],0
same,"Increased urine leukocytes, Instance",[2]; [7],0
same,"Leukocyte increase, Instance",[2]; [7],1
same,"Serious AEs, Instance",[2]; [7],0
same,"AEs leading to exit, Number of cases (n%)","[2]; proportion of subjects, N = 36",0%
same,"AEs of grade 1 and above, Number of cases (n%)","[2]; proportion of subjects, N = 36",0%
same,"Blurred right vision, Number of cases (n%)","[2]; proportion of subjects, N = 36",0%
same,"Elevated blood glucose, Number of cases (n%)","[2]; proportion of subjects, N = 36",0%
same,"Elevated free thyroxine, Number of cases (n%)","[2]; proportion of subjects, N = 36",2.78%
same,"Elevated hypersensitivity thyroid-stimulating hormone, Number of cases (n%)","[2]; proportion of subjects, N = 36",2.78%
same,"Hyperuricemia, Number of cases (n%)","[2]; proportion of subjects, N = 36",2.78%
same,"Increased alanine aminotransferase, Number of cases (n%)","[2]; proportion of subjects, N = 36",0%
same,"Increased urine leukocytes, Number of cases (n%)","[2]; proportion of subjects, N = 36",0%
same,"Leukocyte increase, Number of cases (n%)","[2]; proportion of subjects, N = 36",2.78%
same,"Serious AEs, Number of cases (n%)","[2]; proportion of subjects, N = 36",0%
same,"Total AEs, Number of cases (n%)","[2]; proportion of subjects, N = 36",8.33%
same,Number of adverse reactions / AEs,[2]; 36 subjects per group,four
same,Number of possible related adverse reactions (times),[2]; 36 subjects per group,three
same,Subjects with adverse reactions (proportion),[2]; 36 subjects per group,8.33%
same,Subjects with adverse reactions / AEs (number of subjects),[2]; 36 subjects per group,Three
same,Subjects with possible related adverse reactions (number of subjects),[2]; 36 subjects per group,two
same,Subjects with possible related adverse reactions (proportion),[2]; 36 subjects per group,5.56%
same,Short-term stability (ULOQ) of the working solution,[3]; aqueous mixture of formic acid and acetonitrile,146.9 h
same,Stability of the biological samples after preparation,[3]; prepared plasma samples,21.5 h
same,Mean apparent volume of distribution,[4]; [8],approximately 13 L
same,Mean peak (Cmax),[4]; [8],35 ng/mL
same,Time to maximum concentration after dosing,[4]; [8],8 to 12 h
same,Total exposure (AUC),[4]; [8],960 ng·h/mL
same,Mean apparent clearance,"[4]; single dose, subcutaneous administration",approximately 1.2 L/h
same,Proportion of treated group with low-titer anti-liraglutide antibodies,"[5]; five clinical trials of 26 weeks or longer, end of treatment",Approximately 8.6%
same,Incidence of gastrointestinal adverse reactions,"[5]; patients, five double-blind clinical trials of 26 weeks or longer, dose-related",41%
GLP-1: Endogenous incretin hormone secreted primarily by intestinal L-cells,Effective half-life,[6],only a few minutes
